The values below come from patent US4954514A, “(Di-tert-butylhydroxyphenyl)thio derivatives and antiarterioschlerosis compositions thereof” (Shionogi & Co, Ltd, priority 1989, dated 1990).

Experiment [1] deals with peroxidized lipid in a homogenate of rat brain. The experiment in a line: Suppression on production of peroxidized lipid in a homogenate of rat brain (thiobarbituric acid (TBA) method). The format is biochemical, SD strain rats. The following applies: final concentration 0.01 mM, 37° C., 30 minutes, % of vehicle control. As for the experimental part: Suppression on production of peroxidized lipid in a homogenate of rat brain:
SD strain rats (body weight, about 200 g) were sacrificed by cutting down their heads, and the brains were taken out. The brains were homogenated with a 4-fold amount of 0.05M phosphate-sodium chloride buffer (pH 7.4) and centrifuged at 1000×g for 10 minutes. The supernatant was kept at -80° C. for storage.
The supernatant was diluted with a 2-fold amount of the same phosphate - sodium chloride buffer as above, and 0.48 ml of the dilution was combined with 30 μl of ethanol per se (vehicle) or ethanol solution containing a test compound (final concentration: 0.01 mM), followed by incubation at 37° C. for 30 minutes. The reaction was terminated by addition of 0.01% butylhydroxytoluene (BHT) in ethanol (20 μl) and 25% metaphosphoric acid (125 μl) and subjected to elimination of proteins. The peroxidized lipid in the supernatant was measured by the thiobarbituric acid (TBA) method according to the description in Ohkawa et al.: Anal. Biochem., vol. 95, page 351 (1979). The amount of peroxidized lipid produced was compared with that in the vehicle applied group and expressed in % control.

Experiment [2] concerns hydrochloric acid ethanol-induced gastric ulcer. Nature of the experiment: Effect against hydrochloric acid ethanol-induced gastric ulcer. The format is in vivo, male JCD-SD rats. To be noted: rat, oral, 30 minutes before hydrochloric acid-ethanol; from lesion index; dose not given. The method, then: Effect against hydrochloric acid ethanol-induced gastric ulcer.
To male JCD-SD rats (weight: 220-275 g) which have been fasted for 24 hours was administered orally 1 ml of 150 mM hydrochloric acid - 60% ethanol. After an hour, the stomachs were excised. The ulcer size as determined by measuring the length of each lesion under stereoscopic microscope and the sum of individual lesion length is expressed as lesion index. The vehicle (1% to 10% ethanol) and the test compounds were administered orally 30 minutes before the hydrochloric acid -ethanol administration. The percent suppression was calculated from the lesion indexes of treated versus untreated animals.

With `CC(C)(Sc1cc(C(C)(C)C)c(O)c(C(C)(C)C)c1)Sc1cc(C(C)(C)C)c(O)c(C(C)(C)C)c1` [Probucol, reference compound], the “Peroxidized Lipid Produced (Expressed in % to Control)” value in experiment [1] was 58.3%. Moreover, the “Inhibitory Rate (Expressed in % to Control)” value in experiment [2] turned out to be 75.4 ± 22.1%.
For `CC(C)(C)c1cc(SCCCC#N)cc(C(C)(C)C)c1O` [Ia, 4-(3,5-Di-tert-butyl-4-hydroxy)phenylthiobutylonitrile] the same measures were 4.5% and 94.3 ± 14.8%.
On the same counts, the results for `CC(C)(C)c1cc(SCCCCCC(N)=O)cc(C(C)(C)C)c1O` [Ij, 6-(3,5-Di-tert-butyl-4-hydroxy)phenylthiohexanamide] are 4.7% and 70.8 ± 8.5%.
For `CC(C)(C)c1cc(SCCCc2nnn[nH]2)cc(C(C)(C)C)c1O` [If, 5-[3-(3,5-Di-tert-butyl-4-hydroxy)phenylthiopropyl]tetrazole] the same measures were 5.7% and 52.1 ± 20.0%.
Take `CC(C)(C)c1cc(SCCCCc2nnn[nH]2)cc(C(C)(C)C)c1O` [Ig, 5-[4-(3,5-Di-tert-butyl-4-hydroxy)phenylthiobutyl]tetrazole]: the “Peroxidized Lipid Produced (Expressed in % to Control)” value in experiment [1] was determined as 4.1%. In experiment [2], the “Inhibitory Rate (Expressed in % to Control)” value turned out to be 49.2 ± 13.0%.
On the same counts, the results for `CC(C)(C)c1cc(SCCCCCC#N)cc(C(C)(C)C)c1O` [Ic, 6-(3,5-Di-tert-butyl-4-hydroxy)phenylthiohexanonitrile] are 9.2% and 19.2 ± 8.4%.
On the same counts, the results for `CC(C)(C)c1cc(SCCc2nnn[nH]2)cc(C(C)(C)C)c1O` [Ie, 5-[2-(3,5-Di-tert-butyl-4-hydroxy)phenylthioethyl]tetrazole] are 8.1% and 37.2 ± 5.9%.
For `CC(C)(C)c1cc(SCCCCCc2nnn[nH]2)cc(C(C)(C)C)c1O` [Ih, 5-[5-(3,5-Di-tert-butyl-4-hydroxy)phenylthiopentyl]tetrazole] the same measures were 9.5% and 52.5 ± 16.6%.
As to `CC(C)(C)c1cc(SCCCCCCC#N)cc(C(C)(C)C)c1O` [Id, 7-(3,5-Di-tert-butyl-4-hydroxy)phenylthioheptanonitrile], the “Peroxidized Lipid Produced (Expressed in % to Control)” value in experiment [1] is recorded as 5.4%. The “Inhibitory Rate (Expressed in % to Control)” value in experiment [2] was determined as 77.3 ± 16.8%.
For `CC(C)(C)c1cc(SCCCCCCc2nnn[nH]2)cc(C(C)(C)C)c1O` [Ii, 5-[6-(3,5-Di-tert-butyl-4-hydroxy)phenylthiohexyl]tetrazole] the same measures were 4.4% and 46.6 ± 13.4%.
With `CC(C)(C)c1cc(SCCCCC#N)cc(C(C)(C)C)c1O` [Ib, 5-(3,5-Di-tert-butyl-4-hydroxy)phenylthiopentanonitrile], the “Peroxidized Lipid Produced (Expressed in % to Control)” value in experiment [1] was 3.6%. For the same compound, the “Inhibitory Rate (Expressed in % to Control)” value in experiment [2] stood at 61.2 ± 18.4%.
